In patent US9890147B2 (BAYER PHARMA AKTIENGESELLSCHAFT, priority 2012, dated 2018) one finds IC50 data, which are given here for 13 compounds.

What is called IC50 is the point on the concentration scale where inhibition reaches its midpoint.

The target of one assay is T1, BRD4 (BD1) (Homo sapiens, UniProt O60885).
T1 construct: with relatively long constructs also being possible, preferably amino acids 44-168; made in house; host or cells: E. coli
The assay is described as follows: Binding assay BRD4/acetylated peptide H4 (TR-FRET protein-protein interaction assay). A digest of the protocol: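 Displacement of biotin-Ac-H4 peptide from His6-tagged BRD4(BD1), final usually 10 nM, read as Eu-streptavidin to anti-His-XL665 TR-FRET (665/620 nm). Compounds tested at 11 doses up to 20 μM in duplicate, pH 7.5 HEPES, 22 °C then 4 °C incubation; IC50 by 4-parameter regression.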
(Time-resolved FRET reads energy transfer from a long-lived donor to a nearby acceptor.)

The subject of another assay is MOLM-13 cells. Nature of the assay: Cell proliferation assay (alamarBlue), MOLM-13. It is filed as cell-based. As to conditions: Homo sapiens, 96 hours incubation, inhibition of cell proliferation. A digest of the protocol: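 IC50 = concentration giving 50% growth inhibition relative to buffer-treated cells, after subtracting baseline fluorescence taken before dosing. Compound applied at 1E-5 to 1E-8 M for 96 h at 37 °C in RPMI1640 with 10% FCS; alamarBlue signal at 530/590 nm.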
On the technique in general: Resazurin is reduced to fluorescent resorufin, in cell work by metabolically active cells.

Another assay deals with MV4-11 cells. The assay is described as follows: Cell proliferation assay (alamarBlue), MV4-11. It is filed as cell-based. The following applies: Homo sapiens, 72 hours incubation, inhibition of cell proliferation. As to the method: (§1) In accordance with the invention, the capability of the substances to inhibit cell proliferation was determined Cell viability was determined using the alamarBlue® reagent (Invitrogen) in a Victor X3 Multilabel Reader (Perkin Elmer). The excitation wavelength was 530 nm and the emission wavelenth […].
The MV4-11 cells (ATCC, CRL 9591) were sown at a concentration of 5000 cells/well in 100 μl growth medium (RPMI1640, 10% FCS) on 96-well microtitre plates.
(§2) After an overnight incubation at 37° C., the fluorescence values (CI values) were determined. The plates were then treated with various substance dilutions (1E-5 M, 3E-6 M, 1E-6M, 3E-7 M, 1E-7 M, 3E-8 M, 1E-8 M) and incubated at 37° C. for 72 (MV4-11-, LOX-IMVI cells), 96 (MOLM-13-, B16F10-, MDA-MB-431-, Caov-3 cells), 120 (MOLP-8-, KMS-12-PE cells) or 168 (LAPC-4 cells) hours. The fluorescence values (CO values) were then determined. For the data analysis, the CI values were subtracted from the CO values and the results were compared between cells treated with different dilutions of the substance or with buffer solution only. These were used to calculate the IC 50 values (substance concentration required for 50% inhibition of cell proliferation).

Another assay has as its system LOX-IMVI cells. Nature of the assay: Cell proliferation assay (alamarBlue), LOX-IMVI. The following applies: Homo sapiens, 72 hours incubation, inhibition of cell proliferation. In kind it is cell-based. As to the method:
as §1
The LOX-IMVI cells (NCI-60) were sown at a concentration of 1000 cells/well in 100 μl growth medium (RPMI1640, 10% FCS) on 96-well microtitre plates.
as §2

The next assay deals with MOLP-8 cells. The assay is described as follows: Cell proliferation assay (alamarBlue), MOLP-8. It is filed as cell-based. As to conditions: Homo sapiens, 120 hours incubation, inhibition of cell proliferation. The protocol: as §1
The MOLP-8 cells (DSMZ, ACC 569) were sown at a concentration of 4000 cells/well in 100 μl growth medium (RPMI1640, 20% FCS) on 96-well microtitre plates.
as §2

A further assay deals with KMS-12-PE cells. Nature of the assay: Cell proliferation assay (alamarBlue), KMS-12-PE. In kind it is cell-based. The following applies: Homo sapiens, 120 hours incubation, inhibition of cell proliferation. The protocol: as §1
The KMS-12-PE cells (DSMZ, ACC 606) were sown at a concentration of 4000 cells/well in 100 μl growth medium (RPMI1640, 20% FCS) on 96-well microtitre plates.
as §2

The test system of the next assay is Caov-3 cells. Nature of the assay: Cell proliferation assay (alamarBlue), Caov-3. In kind it is cell-based. The following applies: Homo sapiens; inhibition of cell proliferation, Caov-3 (ovarian carcinoma), 96 hours. As to the method:
as §1
The MDA-MB-231 cells (DSMZ, ACC 732) were sown at a concentration of 4000 cells/well in 100 μl growth medium (DMEM/Ham's F12 medium, 10% FCS) on 96-well microtitre plates. The Caov-3 cells (ATCC, HTB-75) were sown at a concentration of 2000 cells/well in 100 μl growth medium (MEM Earle's medium, 10% FCS) on 96-well microtitre plates.
as §2

Take `CNC(=O)N1N=C(c2ccc(N3CC(F)C3)cc2)c2cc(OC)c(OC)cc2CC1C` (racemic) [Example 129, (±)-1-[4-(3-fluoroazetidin-1-yl)phenyl]-7,8-dimethoxy-N,4-dimethyl-4,5-dihydro-3H-2,3-benzodiazepine-3-carboxamide]: the IC50 was 50 nM at BRD4 (BD1); 220 nM in the assay with MOLM-13 cells; 180 nM in the assay with MV4-11 cells; 580 nM in the assay on LOX-IMVI cells; 150 nM with MOLP-8 cells; 120 nM in the assay with KMS-12-PE cells. The compound further showed an IC50 with Caov-3 cells of 420 nM.

As to `CNC(=O)N1N=C(c2ccc(N3CCNCC3)cc2)c2cc(OC)c(OC)cc2CC1C` (racemic) [Example 131, (±)-7,8-dimethoxy-N,4-dimethyl-1-[4-(piperazin-1-yl)phenyl]-4,5-dihydro-3H-2,3-benzodiazepine-3-carboxamide], the IC50 at BRD4 (BD1) turned out to be 50 nM; in the assay with MOLM-13 cells, 110 nM; with MV4-11 cells, 40 nM; in the assay with LOX-IMVI cells, 70 nM; with MOLP-8 cells it was 30 nM; with KMS-12-PE cells, 30 nM. The same compound had a half-inhibitory concentration (IC50) with Caov-3 cells of 50 nM.

For `CNC(=O)N1N=C(c2ccc(N3CCN(C(C)=O)CC3)cc2)c2cc(OC)c(OC)cc2CC1C` (racemic) [Example 132, (±)-1-[4-(4-acetylpiperazin-1-yl)phenyl]-7,8-dimethoxy-N,4-dimethyl-4,5-dihydro-3H-2,3-benzodiazepine-3-carboxamide], the IC50 at BRD4 (BD1) came out at 30 nM; with MOLM-13 cells it was 200 nM; in the assay with MV4-11 cells, 130 nM; with LOX-IMVI cells, 420 nM; in the assay on MOLP-8 cells it was 120 nM; in the assay on KMS-12-PE cells it was 110 nM. Inhibition with Caov-3 cells was half-maximal at 320 nM (IC50).

Turning to `CNC(=O)N1N=C(c2ccc(N3CCN(C(=O)C(F)(F)F)CC3)cc2)c2cc(OC)c(OC)cc2CC1C` (racemic) [Example 133, (±)-7,8-dimethoxy-N,4-dimethyl-1-{4-[4-(trifluoroacetyl)piperazin-1-yl]phenyl}-4,5-dihydro-3H-2,3-benzodiazepine-3-carboxamide], the IC50 worked out at 50 nM on BRD4 (BD1); 180 nM in the assay on MOLM-13 cells; 80 nM in the assay on MV4-11 cells; 170 nM in the assay with LOX-IMVI cells; 70 nM in the assay on MOLP-8 cells; 80 nM in the assay on KMS-12-PE cells. The IC50 in the assay with Caov-3 cells turned out to be 180 nM.

As to `CNC(=O)N1N=C(c2ccc(N3CCN(S(C)(=O)=O)CC3)cc2)c2cc(OC)c(OC)cc2CC1C` (racemic) [Example 135, (±)-7,8-dimethoxy-N,4-dimethyl-1-{4-[4-(methylsulphonyl)piperazin-1-yl]phenyl}-4,5-dihydro-3H-2,3-benzodiazepine-3-carboxamide], the IC50 at BRD4 (BD1) was 50 nM; in the assay with MOLM-13 cells, 200 nM; in the assay on MV4-11 cells it was 120 nM; in the assay with LOX-IMVI cells, 360 nM; in the assay on MOLP-8 cells it was 130 nM; in the assay with KMS-12-PE cells it was 120 nM. The compound further displayed an IC50 in the assay on Caov-3 cells of 300 nM.

For `CNC(=O)N1N=C(c2ccc(N3CCCCC3)cc2)c2cc(OC)c(OC)cc2CC1C` (racemic) [Example 139, (±)-7,8-dimethoxy-N,4-dimethyl-1-[4-(piperidin-1-yl)phenyl]-4,5-dihydro-3H-2,3-benzodiazepine-3-carboxamide], the IC50 on BRD4 (BD1) worked out at 40 nM; with MOLM-13 cells, 210 nM; with MV4-11 cells, 130 nM; in the assay with LOX-IMVI cells it was 380 nM; with MOLP-8 cells it was 130 nM; in the assay on KMS-12-PE cells, 110 nM. In addition, the IC50 in the assay with Caov-3 cells was 310 nM.

As to `CNC(=O)N1N=C(c2ccc(-n3nc(-c4ccccc4)cc3C)cc2)c2cc(OC)c(OC)cc2CC1C` (racemic) [Example 147, (±)-7,8-Dimethoxy-N,4-dimethyl-1-[4-(5-methyl-3-phenyl-1H-pyrazol-1-yl)phenyl]-4,5-dihydro-3H-2,3-benzodiazepine-3-carboxamide], the IC50 amounted to 30 nM at BRD4 (BD1); 70 nM in the assay with MOLM-13 cells; 50 nM in the assay with MV4-11 cells; 180 nM with LOX-IMVI cells; 80 nM in the assay on MOLP-8 cells; 60 nM in the assay with KMS-12-PE cells. This compound also showed an IC50 with Caov-3 cells of 180 nM.

As for `CNC(=O)N1N=C(c2ccc(-n3nc(-c4ccccc4)cc3C3CC3)cc2)c2cc(OC)c(OC)cc2CC1C` (racemic) [Example 148, (±)-1-[4-(5-cyclopropyl-3-phenyl-1H-pyrazol-1-yl)phenyl]-7,8-dimethoxy-N,4-dimethyl-4,5-dihydro-3H-2,3-benzodiazepine-3-carboxamide], the IC50 at BRD4 (BD1) was found to be 40 nM; in the assay on MOLM-13 cells, 80 nM; in the assay on MV4-11 cells, 70 nM; in the assay on LOX-IMVI cells, 250 nM; in the assay on MOLP-8 cells it was 90 nM; in the assay on KMS-12-PE cells it was 80 nM. This compound also registered a concentration for half-maximal inhibition (IC50) in the assay on Caov-3 cells of 300 nM.

As for `CNC(=O)N1N=C(c2ccc(-c3c(C)noc3C)cc2)c2cc(Cl)c(OC)cc2CC1C` (racemic) [Example 157, (±)-8-chloro-1-[4-(3,5-dimethylisoxazol-4-yl)-phenyl]-7-methoxy-N,4-dimethyl-4,5-dihydro-3H-2,3-benzodiazepine-3-carboxamide], the IC50 at BRD4 (BD1) came to 210 nM; in the assay with MOLM-13 cells it was 90 nM; with MV4-11 cells, 190 nM; with LOX-IMVI cells it was 580 nM; in the assay with MOLP-8 cells it was 120 nM; with KMS-12-PE cells, 240 nM. Further, the IC50 in the assay with Caov-3 cells was 420 nM.

As to `CNC(=O)N1N=C(c2ccc(N3CCOC3=O)cc2)c2cc(OC)c(OC)cc2C[C@@H]1C` [Example 34.1, (4S)-7,8-Dimethoxy-N,4-dimethyl-1-[4-(2-oxooxazolidin-3-yl)phenyl]-4,5-dihydro-3H-2,3-benzodiazepine-3-carboxamide], the IC50 on BRD4 (BD1) is 40 nM; in the assay with MOLM-13 cells it was 240 nM; in the assay with MV4-11 cells it was 120 nM; in the assay with LOX-IMVI cells it was 440 nM; in the assay with MOLP-8 cells, 80 nM; in the assay on KMS-12-PE cells it was 80 nM. Moreover, half-maximal inhibition in the assay with Caov-3 cells (IC50) required 310 nM.

For `CNC(=O)N1N=C(c2ccc(-c3c(C)nn(C)c3C)cc2)c2cc(OC)c(OC)cc2C[C@@H]1C` [Example 51.2, (4S)-7,8-dimethoxy-N,4-dimethyl-1-[4-(1,3,5-trimethyl-1H-pyrazol-4-yl)phenyl]-4,5-dihydro-3H-2,3-benzodiazepine-3-carboxamide], the half-inhibitory concentration (IC50) at BRD4 (BD1) was found to be 30 nM; in the assay on MOLM-13 cells, 110 nM; with MV4-11 cells, 50 nM; with LOX-IMVI cells, 170 nM; with MOLP-8 cells it was 50 nM; in the assay with KMS-12-PE cells, 40 nM. Also, half-maximal inhibition with Caov-3 cells (IC50) was put at 130 nM.

As to `CNC(=O)N1N=C(c2ccc(N3CCC3)cc2)c2cc(OC)c(OC)cc2C[C@@H]1C` [Example 128.2, (4S)-1-[4-(azetidin-1-yl)phenyl]-7,8-dimethoxy-N,4-dimethyl-4,5-dihydro-3H-2,3-benzodiazepine-3-carboxamide], the IC50 turned out to be 20 nM on BRD4 (BD1); 150 nM with MOLM-13 cells; 70 nM with MV4-11 cells; 190 nM with LOX-IMVI cells; 50 nM in the assay on MOLP-8 cells; 50 nM in the assay with KMS-12-PE cells. For the same compound, the IC50 in the assay on Caov-3 cells worked out at 160 nM.

For the compound `CNC(=O)N1N=C(c2ccc(-n3nc(-c4ccccc4)cc3C)cc2)c2cc(OC)c(OC)cc2C[C@@H]1C` [Example 147.1, (4S)-7,8-dimethoxy-N,4-dimethyl-1-[4-(5-methyl-3-phenyl-1H-pyrazol-1-yl)phenyl]-4,5-dihydro-3H-2,3-benzodiazepine-3-carboxamide], the IC50 was 30 nM on BRD4 (BD1); 60 nM in the assay with MOLM-13 cells; 20 nM with MV4-11 cells; 510 nM in the assay on LOX-IMVI cells; 20 nM in the assay with MOLP-8 cells; 30 nM in the assay with KMS-12-PE cells. The compound further returned a half-inhibitory concentration (IC50) in the assay with Caov-3 cells of 80 nM.
